In ChEMBL document CHEMBL1201862, “PubChem BioAssay data set” (2004):
Active and inactive are the calls of the source.

How the values were obtained:
Hexokinase HKDC1 = target: T1, Hexokinase HKDC1 (Homo sapiens, UniProt Q2TB90); experiment: HKDC1 hexokinase inhibitors, dose response, biochemical, W721R variant (AID 504729); format: functional
T1 sequence (Q2TB90 whole entry): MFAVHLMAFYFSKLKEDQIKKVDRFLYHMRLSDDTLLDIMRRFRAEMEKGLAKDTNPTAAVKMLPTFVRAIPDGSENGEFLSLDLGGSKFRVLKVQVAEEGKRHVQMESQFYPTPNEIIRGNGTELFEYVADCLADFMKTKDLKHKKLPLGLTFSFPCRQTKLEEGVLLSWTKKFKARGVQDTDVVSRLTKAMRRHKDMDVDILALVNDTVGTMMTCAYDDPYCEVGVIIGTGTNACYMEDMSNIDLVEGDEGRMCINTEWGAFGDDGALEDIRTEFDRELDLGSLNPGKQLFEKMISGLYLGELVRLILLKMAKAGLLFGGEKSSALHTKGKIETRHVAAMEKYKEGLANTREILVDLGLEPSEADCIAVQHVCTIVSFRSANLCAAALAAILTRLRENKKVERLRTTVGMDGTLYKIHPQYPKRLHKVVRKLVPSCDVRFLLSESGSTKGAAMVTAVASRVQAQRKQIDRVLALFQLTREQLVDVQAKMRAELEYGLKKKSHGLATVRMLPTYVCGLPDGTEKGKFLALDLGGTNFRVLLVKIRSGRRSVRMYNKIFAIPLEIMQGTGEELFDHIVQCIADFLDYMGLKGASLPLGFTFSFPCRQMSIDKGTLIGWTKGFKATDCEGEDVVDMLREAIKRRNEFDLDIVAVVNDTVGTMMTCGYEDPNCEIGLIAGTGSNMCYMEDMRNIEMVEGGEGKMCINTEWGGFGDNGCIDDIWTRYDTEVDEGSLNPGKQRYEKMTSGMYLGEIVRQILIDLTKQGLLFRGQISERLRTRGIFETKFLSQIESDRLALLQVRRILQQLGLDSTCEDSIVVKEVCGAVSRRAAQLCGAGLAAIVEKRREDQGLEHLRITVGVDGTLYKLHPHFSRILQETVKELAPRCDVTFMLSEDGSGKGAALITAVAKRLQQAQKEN

[1] = target: T2, Adenosylmethionine-8-amino-7-oxononanoate aminotransferase (Mycobacterium tuberculosis, UniProt P9WQ81); experiment: Mycobacterium tuberculosis BioA enzyme inhibitor Measured in Biochemical System Using Plate Reader - 2163-02_Inhibitor_Dose_CherryPick_Activity.; format: functional, Mycobacterium tuberculosis UT205
T2 sequence (P9WQ81 whole entry): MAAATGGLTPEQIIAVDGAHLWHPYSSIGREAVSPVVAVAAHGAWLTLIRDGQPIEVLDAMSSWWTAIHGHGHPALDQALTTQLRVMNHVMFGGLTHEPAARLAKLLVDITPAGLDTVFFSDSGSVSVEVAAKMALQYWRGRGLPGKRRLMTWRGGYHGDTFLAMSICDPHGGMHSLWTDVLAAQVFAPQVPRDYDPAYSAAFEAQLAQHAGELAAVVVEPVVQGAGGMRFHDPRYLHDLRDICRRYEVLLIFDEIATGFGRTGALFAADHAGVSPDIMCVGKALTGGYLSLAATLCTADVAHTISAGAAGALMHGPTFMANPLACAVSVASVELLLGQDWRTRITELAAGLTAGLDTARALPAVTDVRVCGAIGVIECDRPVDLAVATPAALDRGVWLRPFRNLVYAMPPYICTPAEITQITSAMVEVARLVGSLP

[2] = target: Dual specificity protein phosphatase 3 (Homo sapiens, UniProt P51452); experiment: VHR1 inhibitor Ki determination, SAR follow-up, biochemical, colorimetric (AID 2004)
Chain of Dual specificity protein phosphatase 3 (P51452 whole entry): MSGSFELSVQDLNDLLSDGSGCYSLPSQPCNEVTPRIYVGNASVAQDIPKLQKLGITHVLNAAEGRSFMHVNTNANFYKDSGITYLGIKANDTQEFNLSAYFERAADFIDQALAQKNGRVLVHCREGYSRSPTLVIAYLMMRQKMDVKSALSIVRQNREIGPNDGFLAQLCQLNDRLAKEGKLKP

Beta-galactosidase = Beta-galactosidase (Escherichia coli, UniProt Q8VNN2); experiment: beta-galactosidase enzyme inhibitors and activators, dose response, artefact control for CCR6 antagonist project, biochemical, E. coli enzyme, set 3 (AID 504712); format: functional
[3] = target: T3, Eukaryotic translation initiation factor 4H (Homo sapiens, UniProt Q15056); experiment: human eIF4H binding inhibitors, primary screen, translation initiation inhibitor project, biochemical, uHTS, fluorescence polarization (AID 2012)
[4] = target: T4, Polyadenylate-binding protein 1 (Homo sapiens, UniProt P11940); experiment: PABP poly(A) RNA binding inhibitors, primary screen, biochemical, fluorescence polarization, uHTS (AID 2014)
T4 sequence (P11940 whole entry): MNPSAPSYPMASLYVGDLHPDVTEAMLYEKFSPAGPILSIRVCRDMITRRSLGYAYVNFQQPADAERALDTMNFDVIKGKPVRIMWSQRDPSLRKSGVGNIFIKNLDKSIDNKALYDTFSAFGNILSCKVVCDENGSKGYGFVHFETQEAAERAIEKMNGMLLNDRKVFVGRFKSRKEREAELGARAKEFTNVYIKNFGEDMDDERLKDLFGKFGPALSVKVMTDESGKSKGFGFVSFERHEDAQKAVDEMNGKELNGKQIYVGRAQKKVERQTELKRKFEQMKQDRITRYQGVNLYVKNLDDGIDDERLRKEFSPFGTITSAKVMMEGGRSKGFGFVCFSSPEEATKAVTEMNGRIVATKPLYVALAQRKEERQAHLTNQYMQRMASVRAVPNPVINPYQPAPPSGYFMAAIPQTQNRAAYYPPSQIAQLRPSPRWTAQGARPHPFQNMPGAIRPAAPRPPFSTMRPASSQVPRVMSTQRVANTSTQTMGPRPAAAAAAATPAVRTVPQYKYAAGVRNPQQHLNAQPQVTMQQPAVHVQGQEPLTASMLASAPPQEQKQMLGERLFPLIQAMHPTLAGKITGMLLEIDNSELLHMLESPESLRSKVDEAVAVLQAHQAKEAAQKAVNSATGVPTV

[5] = target: T3, Eukaryotic translation initiation factor 4H; experiment: eIF4H inhibition in translation initiation, SAR follow-up (AID 435011); format: functional
[6] = target: T5, DNA dC->dU-editing enzyme APOBEC-3A (Homo sapiens, UniProt P31941); experiment: Dose Response confirmation of small molecule APOBEC3A DNA Deaminase Inhibitors via a fluorescence-based single-stranded DNA deaminase assay. [Related pubchem assays (depositor defined):AID493011, AID493024]; format: functional
T5 sequence (P31941 whole entry): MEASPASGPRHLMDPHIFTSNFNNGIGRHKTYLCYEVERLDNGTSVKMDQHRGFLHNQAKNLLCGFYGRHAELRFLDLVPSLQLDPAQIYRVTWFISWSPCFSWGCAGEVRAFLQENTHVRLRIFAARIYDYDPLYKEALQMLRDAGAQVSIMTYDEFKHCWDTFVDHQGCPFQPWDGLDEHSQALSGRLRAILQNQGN

[7] = target: T4, Polyadenylate-binding protein 1; experiment: PABP inhibition in translation initiation, SAR follow-up (AID 435018); format: functional
[8] = target: T6, DNA dC->dU-editing enzyme APOBEC-3G (Homo sapiens, UniProt Q9HC16); format: functional
T6 sequence (Q9HC16 whole entry): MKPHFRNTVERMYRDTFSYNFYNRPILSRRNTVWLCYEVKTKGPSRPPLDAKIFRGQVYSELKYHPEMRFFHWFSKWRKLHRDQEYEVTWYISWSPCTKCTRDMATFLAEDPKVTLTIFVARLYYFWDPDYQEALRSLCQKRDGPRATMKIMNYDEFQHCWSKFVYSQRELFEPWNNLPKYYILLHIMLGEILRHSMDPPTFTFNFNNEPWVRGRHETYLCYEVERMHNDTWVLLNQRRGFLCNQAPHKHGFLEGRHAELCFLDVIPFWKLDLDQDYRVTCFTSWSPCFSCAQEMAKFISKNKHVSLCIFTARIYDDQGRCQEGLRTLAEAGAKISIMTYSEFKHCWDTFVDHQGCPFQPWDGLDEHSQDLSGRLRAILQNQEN

[9] = target: T5, DNA dC->dU-editing enzyme APOBEC-3A; experiment: SAR analysis of small molecule inhibitors of APOBEC3A DNA Deaminase via a fluorescence-based single-stranded DNA deaminase assay - Set 2.; format: functional; conditions: read-out: IC50_Mean
[10] = target: T6, DNA dC->dU-editing enzyme APOBEC-3G; experiment: SAR analysis of small molecule inhibitors of APOBEC3G DNA Deaminase via a fluorescence-based single-stranded DNA deaminase assay - Set 2.; format: functional; conditions: read-out: IC50_Mean
[11] = target: T6, DNA dC->dU-editing enzyme APOBEC-3G; experiment: APOBEC3G deaminase inhibitors, SAR follow-up, biochemical, fluorescence, single-stranded DNA substrate (AID 602136); format: functional; conditions: read-out: IC50_Mean
[12] = target: T5, DNA dC->dU-editing enzyme APOBEC-3A; experiment: SAR analysis of small molecule inhibitors of APOBEC3A DNA Deaminase via a fluorescence-based single-stranded DNA deaminase assay.; format: functional; conditions: read-out: IC50_Mean
[13] = target: G-protein coupled receptor 55 (Homo sapiens, UniProt Q9Y2T6); experiment: GPR55 agonists via beta-arrestin recruitment, primary screen, imaging, U2OS cells, beta-arrestin-GFP redistribution (AID 1961); format: functional
Chain of G-protein coupled receptor 55 (Q9Y2T6 whole entry): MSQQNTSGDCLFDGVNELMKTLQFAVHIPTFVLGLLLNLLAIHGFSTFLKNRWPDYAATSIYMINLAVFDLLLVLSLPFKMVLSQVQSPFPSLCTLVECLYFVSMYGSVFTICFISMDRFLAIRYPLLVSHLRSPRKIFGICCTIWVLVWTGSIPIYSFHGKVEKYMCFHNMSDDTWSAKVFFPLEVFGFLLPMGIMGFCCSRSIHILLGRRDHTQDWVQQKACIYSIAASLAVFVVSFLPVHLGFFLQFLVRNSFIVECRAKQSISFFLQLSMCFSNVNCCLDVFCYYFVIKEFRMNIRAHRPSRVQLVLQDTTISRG

Mu-type opioid receptor = Mu-type opioid receptor (Homo sapiens, UniProt P35372); experiment: SAR Analysis of Antagonists of the MOR Receptor using an Image-Based Assay - Set 3. [Related pubchem assays (depositor defined):AID1777, AID1785, AID1786, AID1966, AID2133, AID2136, AID2284, AID2285, AID2420]; format: functional
Chain of Mu-type opioid receptor (P35372 whole entry): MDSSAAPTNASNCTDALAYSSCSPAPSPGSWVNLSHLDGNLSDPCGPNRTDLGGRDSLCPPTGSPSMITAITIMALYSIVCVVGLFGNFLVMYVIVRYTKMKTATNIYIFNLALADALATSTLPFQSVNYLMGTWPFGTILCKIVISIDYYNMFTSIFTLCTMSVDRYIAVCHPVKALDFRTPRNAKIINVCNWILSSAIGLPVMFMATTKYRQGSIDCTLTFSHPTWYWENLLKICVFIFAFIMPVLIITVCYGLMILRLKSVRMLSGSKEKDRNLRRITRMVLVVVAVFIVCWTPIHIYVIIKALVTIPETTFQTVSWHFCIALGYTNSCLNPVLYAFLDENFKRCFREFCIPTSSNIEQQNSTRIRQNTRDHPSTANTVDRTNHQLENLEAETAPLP

[14] = target: T7, Kappa-type opioid receptor (Homo sapiens, UniProt P41145); experiment: SAR analysis of small molecule antagonists of the kappa opioid receptor via a luminescent beta-arrestin assay - Set 4. [Related pubchem assays (depositor defined):AID1777, AID1778, AID1785, AID1786, AID1966, AID2133, AID2136, AID2285]; format: functional
T7 sequence (P41145 whole entry): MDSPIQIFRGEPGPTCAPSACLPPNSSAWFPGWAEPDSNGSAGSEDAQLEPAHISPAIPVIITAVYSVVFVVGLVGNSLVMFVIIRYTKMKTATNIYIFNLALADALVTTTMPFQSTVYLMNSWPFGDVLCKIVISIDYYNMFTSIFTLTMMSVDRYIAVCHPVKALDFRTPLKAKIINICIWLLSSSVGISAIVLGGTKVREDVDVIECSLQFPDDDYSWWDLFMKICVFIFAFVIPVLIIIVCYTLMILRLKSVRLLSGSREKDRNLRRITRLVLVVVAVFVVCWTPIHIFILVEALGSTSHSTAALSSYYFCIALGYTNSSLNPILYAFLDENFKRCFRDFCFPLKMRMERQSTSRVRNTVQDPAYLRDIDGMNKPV

[15] = target: Delta-type opioid receptor (Homo sapiens, UniProt P41143); experiment: SAR Analysis of Antagonists of the DOR Receptor using an Image-Based Assay - Set 3. [Related pubchem assays (depositor defined):AID1777, AID1785]; format: functional;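 also: U2OS cells expressing DOR1 and beta-arrestin GFP stimulated with 100 nM SNC80; imaging of GFP-tagged beta-arrestin moving into spots after receptor activation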
Chain of Delta-type opioid receptor (P41143 whole entry): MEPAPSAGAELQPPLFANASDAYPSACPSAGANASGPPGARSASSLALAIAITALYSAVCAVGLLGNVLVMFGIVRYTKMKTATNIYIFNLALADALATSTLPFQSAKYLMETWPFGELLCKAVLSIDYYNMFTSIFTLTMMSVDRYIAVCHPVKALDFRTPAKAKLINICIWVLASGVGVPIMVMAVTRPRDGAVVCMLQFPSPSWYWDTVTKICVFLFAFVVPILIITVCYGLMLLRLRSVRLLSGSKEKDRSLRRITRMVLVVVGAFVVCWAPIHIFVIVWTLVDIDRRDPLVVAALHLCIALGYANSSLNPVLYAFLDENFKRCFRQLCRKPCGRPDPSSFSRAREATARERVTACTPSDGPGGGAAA

[16] = target: T7, Kappa-type opioid receptor; experiment: SAR analysis of Antagonists of the Kappa Opioid Receptor (KOR) using an Image-Based Assay - Set 4. [Related pubchem assays (depositor defined):AID1777, AID1785]; format: functional
[17] = target: T7, Kappa-type opioid receptor; experiment: SAR analysis of small molecule antagonists of the kappa opioid receptor via a luminescent beta-arrestin assay - Set 3. [Related pubchem assays (depositor defined):AID1777, AID1778, AID1785, AID1786, AID1966, AID2133, AID2136, AID2285, AID2495]; format: functional
[18] = target: T7, Kappa-type opioid receptor; experiment: SAR analysis of Antagonists of the Kappa Opioid Receptor (KOR) using an Image-Based Assay - Set 3. [Related pubchem assays (depositor defined):AID1777, AID1785]; format: functional
Tumor necrosis factor = Tumor necrosis factor (Homo sapiens, UniProt P01375); experiment: TNFa-triggered NF-kB activation inhibitors, SAR follow-up, cell-based, revised (AID 2337); format: functional
Chain of Tumor necrosis factor (P01375 whole entry, the tested form may be a part): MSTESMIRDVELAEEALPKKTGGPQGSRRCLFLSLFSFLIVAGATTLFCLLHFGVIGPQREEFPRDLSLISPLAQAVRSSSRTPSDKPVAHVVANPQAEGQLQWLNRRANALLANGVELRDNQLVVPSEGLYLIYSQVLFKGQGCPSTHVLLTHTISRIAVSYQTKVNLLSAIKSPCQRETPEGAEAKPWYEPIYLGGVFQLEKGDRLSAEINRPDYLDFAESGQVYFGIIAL

[19] = target: Nucleotide-binding oligomerization domain-containing protein 1 (Homo sapiens, UniProt Q9Y239); experiment: NOD1 signaling inhibitors, SAR follow-up, revised (AID 2333); format: functional
Chain of Nucleotide-binding oligomerization domain-containing protein 1 (Q9Y239 whole entry, the tested form may be a part): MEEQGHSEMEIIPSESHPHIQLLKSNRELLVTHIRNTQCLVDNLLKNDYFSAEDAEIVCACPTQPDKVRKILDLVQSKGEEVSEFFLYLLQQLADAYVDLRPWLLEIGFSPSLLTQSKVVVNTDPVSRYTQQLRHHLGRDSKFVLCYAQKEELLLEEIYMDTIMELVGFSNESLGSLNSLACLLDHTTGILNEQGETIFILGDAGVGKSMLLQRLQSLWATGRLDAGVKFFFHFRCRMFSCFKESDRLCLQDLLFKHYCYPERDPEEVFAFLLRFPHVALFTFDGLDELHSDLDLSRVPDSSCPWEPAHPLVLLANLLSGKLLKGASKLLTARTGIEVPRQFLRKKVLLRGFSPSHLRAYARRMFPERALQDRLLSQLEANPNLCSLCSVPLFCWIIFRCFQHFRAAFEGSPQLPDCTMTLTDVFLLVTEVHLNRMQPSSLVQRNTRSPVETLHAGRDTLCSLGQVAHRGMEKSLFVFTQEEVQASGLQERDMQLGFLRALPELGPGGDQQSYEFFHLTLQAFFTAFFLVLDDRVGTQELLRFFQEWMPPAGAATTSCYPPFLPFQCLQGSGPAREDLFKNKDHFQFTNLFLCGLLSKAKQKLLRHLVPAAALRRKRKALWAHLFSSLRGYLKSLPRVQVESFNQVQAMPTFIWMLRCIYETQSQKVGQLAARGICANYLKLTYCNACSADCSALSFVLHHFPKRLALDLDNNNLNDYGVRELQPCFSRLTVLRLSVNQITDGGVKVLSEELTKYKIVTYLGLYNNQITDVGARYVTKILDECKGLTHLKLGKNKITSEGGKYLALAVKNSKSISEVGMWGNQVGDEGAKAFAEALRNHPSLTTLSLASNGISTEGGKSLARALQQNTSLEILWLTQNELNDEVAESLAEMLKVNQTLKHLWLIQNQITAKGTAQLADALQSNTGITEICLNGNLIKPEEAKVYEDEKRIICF

HEK293 = experiment: cells; conditions: Homo sapiens;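 also: cells exposed to compound for 14 hours overnight before viability readout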

With `O=C(CSc1nnc(-c2cccnc2)[nH]1)Nc1ccnc2ccccc12` the IC50 (Hexokinase HKDC1) was 13.1 µM (active) and the AC50 [1] was 6.07 µM (active).
With `COc1ccccc1CC(=N)NOC(=O)c1ccco1` the Ki [2] was 48.4 µM (inactive).
`CCCCC(=O)NNC=C1C(=O)N(CC)C(=S)N(CC)C1=O` was tested, and the IC50 (Beta-galactosidase) was > 66.6 µM (inactive).
`CCOC(=O)c1ccc2c(c1)N(C)C(=O)c1ccccc1S2` was tested, and the IC50 [3] was > 100 µM (inactive), the IC50 [4] was 8.14 µM (active) and the IC50 [5] was 11.7 µM (active). The IC50 [6] was 1.55 µM (active), the IC50 [7] was 22.2 µM (active) and the IC50 [8] was > 100 µM (inactive). For the same molecule, the IC50 [9] was 12.9 µM (inactive), the IC50 [10] was > 99 µM (inactive) and the IC50 [11] was 8.67 µM (active). For the same molecule, the IC50 [12] was 16.6 µM (inactive).
`COc1cc(/C=C2\C(=O)ON=C2c2ccccc2)cc(Cl)c1O` was tested, and the EC50 [13] was > 32 µM (inactive).
For `CC(C)c1ccc(S(=O)(=O)NCc2ccc(C(=O)NCCN(Cc3ccccc3)C(C)C)cc2)cc1`, the IC50 (Mu-type opioid receptor) was 0.66 µM (active), the IC50 [14] was 1.57 µM (active) and the IC50 [15] was > 32 µM (inactive). For the same molecule, the IC50 [16] was 0.531 µM (active).
In the case of `O=C(Cn1c(=O)c2cccn2c2cccnc21)NCCCN1CCN(Cc2ccccc2)CC1`, the IC50 (Mu-type opioid receptor) is reported as > 32 µM (inactive), the IC50 [15] is reported as > 32 µM (inactive) and the IC50 [17] is reported as > 20 µM (inactive). For the same molecule, the IC50 [18] was 11 µM (inactive).
With `O=C(Nc1ccc(Cl)c([N+](=O)[O-])c1)c1ccc2ccccc2c1O` the IC50 (Tumor necrosis factor) was 0.87 µM (active), the IC50 [19] was 0.692 µM (active) and the IC50 (HEK293) was 4.04 µM (active).
